≈ marks a conversion by molar mass, not a printed value.
What was measured:
Format in all cases: cell-based
[1] = test system: STAPHYLOCOCCUS AUREUS ATCC 6538P; test: In vitro antibacterial activity, MIC, BHI agar dilution; conditions: S. aureus ATCC 6538P, 35-37° C., 20 to 24 hours, unit assumed
[2] = test system: STAPHYLOCOCCUS AUREUS A5177; test: as above; conditions: S. aureus A5177, unit assumed
[3] = test system: STAPHYLOCOCCUS AUREUS A-5278; test: as above; conditions: S. aureus A-5278, unit assumed
[4] = test system: STAPHYLOCOCCUS AUREUS CMX 642A; test: as above; conditions: S. aureus CMX 642A, unit assumed
[5] = test system: STAPHYLOCOCCUS AUREUS NCTC10649M; test: as above; conditions: S. aureus NCTC10649M, unit assumed
[6] = test system: STAPHYLOCOCCUS AUREUS CMX 553; test: as above; conditions: S. aureus CMX 553, unit assumed
[7] = test system: STAPHYLOCOCCUS AUREUS 1775; test: as above; conditions: S. aureus 1775, unit assumed
[8] = test system: STAPHYLOCOCCUS EPIDERMIDIS 3519; conditions: S. epidermidis 3519; BHI agar; unit assumed
[9] = test system: EN[…] ATCC 8043; test: In vitro antibacterial activity, MIC, BHI agar dilution; conditions: E. faecium ATCC 8043, unit assumed
Procedure, shortened: (§1)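 BHI agar dilution, 12 plates; inoculum 1:100 (1:10 slow-growing strains), Steers replicator; 35-37° C, 20-24 h. MIC = lowest conc. with no growth/slight haze/sparse colonies vs growth control, visual read. Erythromycin A reference plate.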

[10] = test system: M[…] ATCC 4698; test: as above; conditions: M. luteus ATCC 4698, unit assumed
Procedure, shortened: as §1

[11] = test system: M[…] ATCC 9341; test: as above; conditions: M. luteus ATCC 9341, unit assumed
Procedure, shortened: as §1

[12] = test system: STR[…] 508; test: as above; conditions: S. agalactiae CMX 508, unit assumed
Procedure, shortened: as §1

[13] = test system: STREPTOCOCCUS BOVIS A-5169; test: as above; conditions: S. bovis A-5169, unit assumed
[14] = test system: STREPTOCOCCUS PYOGENES EES61; test: as above; conditions: S. pyogenes EES61, unit assumed
[15] = test system: STREPTOCOCCUS PYOGENES 930; test: as above; conditions: S. pyogenes 930, unit assumed
[16] = test system: STREPTOCOCCUS PYOGENES PIU 2548; test: as above; conditions: S. pyogenes PIU 2548, unit assumed
[17] = test system: ESCHERICHIA COLI JUHL; conditions: E. coli JUHL; BHI agar; unit assumed
[18] = test system: ESCHERICHIA COLI SS; test: In vitro antibacterial activity, MIC, BHI agar dilution; conditions: E. coli SS, unit assumed
[19] = test system: ESCHERICHIA COLI DC-2; test: as above; conditions: E. coli DC-2, unit assumed
[20] = test system: ESCHERICHIA COLI H560; test: as above; conditions: E. coli H560, unit assumed
[21] = test system: ESCHERICHIA COLI KNK 437; conditions: E. coli KNK 437; BHI agar; unit assumed
[22] = test system: ENTEROBACTER AEROGENES ATCC 13048; test: In vitro antibacterial activity, MIC, BHI agar dilution; conditions: E. aerogenes ATCC 13048, unit assumed
[23] = test system: KLEBSIELLA PNEUMONIAE ATCC 8045; test: as above; conditions: K. pneumoniae ATCC 8045, unit assumed
[24] = test system: PROVIDENCIA STUARTII CMX 640; conditions: P. stuartii CMX 640; BHI agar; unit assumed
[25] = test system: PSEUDOMONAS AERUGINOSA BMH10; test: In vitro antibacterial activity, MIC, BHI agar dilution; conditions: P. aeruginosa BMH10, unit assumed
[26] = test system: PSEUDOMONAS AERUGINOSA 5007; test: as above; conditions: P. aeruginosa 5007, unit assumed
[27] = test system: PSEUDOMONAS AERUGINOSA K799/WT; test: as above; conditions: P. aeruginosa K799/WT, unit assumed
[28] = test system: PSEUDOMONAS AERUGINOSA K799/61; test: as above; conditions: P. aeruginosa K799/61, unit assumed
[29] = test system: PSEUDOMONAS CEPACIA 296I; test: as above; conditions: P. cepacia 296I, unit assumed
[30] = test system: ACINETOBACTER CALCOACETICUS CMX 669; test: as above; conditions: A. calcoaceticus CMX 669, unit assumed
[31] = test system: PSEUDOMONAS AERUGINOSA DPHD-5263; test: as above; conditions: P. aeruginosa DPHD-5263, unit assumed
[32] = test system: PSEUDOMONAS AERUGINOSA DPHD-2862; test: as above; conditions: P. aeruginosa DPHD-2862, unit assumed
[33] = test system: CANDIDA ALBICANS CCH 442; test: as above; conditions: C. albicans CCH 442, unit assumed
[34] = test system: MYCOBACTERIUM SMEGMATIS ATCC 114; test: as above; conditions: M. smegmatis ATCC 114, unit assumed
[35] = test system: H. Influenza Dill AMP R; test: In vitro antibacterial activity against H. Influenza Dill AMP R, MIC; conditions: separate assay, unit assumed
Experimental: Representative compounds of the present invention were assayed in vitro for antibacterial activity as follows: Twelve petri dishes containing successive aqueous dilutions of the test compound mixed with 10 mL of sterilized Brain Heart Infusion (BHI) agar (Difco 0418-01-5) were prepared. Each plate was inoculated with 1:100 (or 1:10 for slow-growing strains, such as Micrococcus and Streptococcus) dilutions of up to 32 different microorganisms, using a Steers replicator block. The inoculated plates were incubated at 35-37° C. for 20 to 24 hours. In addition, a control plate, using BHI agar containing no test compound, was prepared and incubated at the beginning and end of each test.
After incubation, each plate was visually inspected. The minimum inhibitory concentration (MIC) was defmed as the lowest concentration of drug yielding no growth, a slight haze, or sparsely isolated colonies on the inoculum spot as compared to the growth control.
In a separate assay representative compounds of the invention were assayed in vitro for antibacterial activity against the H. Influenza Dill AMP R strain, according to the protocol described above.

| SMILES | MIC [1] | MIC [2] | MIC [3] | MIC [4] | MIC [5] | MIC [6] | MIC [7] | MIC [8] | MIC [9] | MIC [10] | MIC [11] | MIC [12] | MIC [13] | MIC [14] | MIC [15] | MIC [16] | MIC [17] | MIC [18] | MIC [19] | MIC [20] | other results |
| --- | --- | --- | --- | --- | --- | --- | --- | --- | --- | --- | --- | --- | --- | --- | --- | --- | --- | --- | --- | --- | --- |
| CC[C@H]1OC(=O)[C@H](C)C(=O)[C@H](C)[C@@H](O[C@@H]2O[C@H](C)C[C@H](N(C)C)[C@H]2O)[C@](C)(OC)C[C@@H](C)C2=N[C@@H]3CNC[C@@H]3N3C(=O)O[C@@]1(C)[C@H]3[C@H]2C [Example 19] | 0.39 µg/mL (≈ 0.574 µM) | 0.39 µg/mL (≈ 0.574 µM) | > 100 µg/mL | 0.39 µg/mL (≈ 0.574 µM) | 0.39 µg/mL (≈ 0.574 µM) | 0.39 µg/mL (≈ 0.574 µM) | > 100 µg/mL | 0.39 µg/mL (≈ 0.574 µM) | 0.05 µg/mL (≈ 0.0737 µM) | 0.2 µg/mL (≈ 0.295 µM) | 0.1 µg/mL (≈ 0.147 µM) | 0.05 µg/mL (≈ 0.0737 µM) | 0.005 µg/mL (≈ 0.00737 µM) | 0.05 µg/mL (≈ 0.0737 µM) | > 100 µg/mL | 0.78 µg/mL (≈ 1.15 µM) | 12.5 µg/mL (≈ 18.4 µM) | 0.2 µg/mL (≈ 0.295 µM) | 6.2 µg/mL (≈ 9.13 µM) | 3.1 µg/mL (≈ 4.57 µM) | MIC [21]: 6.2 µg/mL (≈ 9.13 µM); MIC [22]: 12.5 µg/mL (≈ 18.4 µM); MIC [23]: 12.5 µg/mL (≈ 18.4 µM); MIC [24]: > 100 µg/mL; MIC [25]: 50 µg/mL (≈ 73.7 µM); MIC [26]: > 100 µg/mL; MIC [27]: > 100 µg/mL; MIC [28]: 0.39 µg/mL (≈ 0.574 µM); MIC [29]: > 100 µg/mL; MIC [30]: 6.2 µg/mL (≈ 9.13 µM); MIC [31]: > 100 µg/mL; MIC [32]: > 100 µg/mL; MIC [33]: > 100 µg/mL; MIC [34]: 3.1 µg/mL (≈ 4.57 µM); MIC [35]: 16 µg/mL (≈ 23.6 µM) |
| CC[C@H]1OC(=O)[C@H](C)C(=O)[C@H](C)[C@@H](O[C@@H]2O[C@H](C)C[C@H](N(C)C)[C@H]2O)[C@](C)(OC)C[C@@H](C)C2=NC[C@H](CCCc3ccccc3)N3C(=O)O[C@@]1(C)[C@H]3[C@H]2C [Example 40] | 0.78 µg/mL (≈ 1.03 µM) | 0.78 µg/mL (≈ 1.03 µM) | > 100 µg/mL | 0.78 µg/mL (≈ 1.03 µM) | 0.78 µg/mL (≈ 1.03 µM) | 0.78 µg/mL (≈ 1.03 µM) | > 100 µg/mL | 0.39 µg/mL (≈ 0.516 µM) | 0.05 µg/mL (≈ 0.0661 µM) | 0.39 µg/mL (≈ 0.516 µM) | 0.05 µg/mL (≈ 0.0661 µM) | 0.05 µg/mL (≈ 0.0661 µM) | 0.02 µg/mL (≈ 0.0265 µM) | 0.02 µg/mL (≈ 0.0265 µM) | 100 µg/mL (≈ 132 µM) | 0.2 µg/mL (≈ 0.265 µM) | > 100 µg/mL | 0.78 µg/mL (≈ 1.03 µM) | 100 µg/mL (≈ 132 µM) | 25 µg/mL (≈ 33.1 µM) | MIC [21]: > 100 µg/mL; MIC [22]: > 100 µg/mL; MIC [23]: > 100 µg/mL; MIC [24]: > 100 µg/mL; MIC [25]: > 100 µg/mL; MIC [26]: > 100 µg/mL; MIC [27]: > 100 µg/mL; MIC [28]: 0.78 µg/mL (≈ 1.03 µM); MIC [29]: > 100 µg/mL; MIC [30]: 50 µg/mL (≈ 66.1 µM); MIC [31]: > 100 µg/mL; MIC [32]: > 100 µg/mL; MIC [33]: > 100 µg/mL; MIC [34]: 0.39 µg/mL (≈ 0.516 µM); MIC [35]: 4 µg/mL (≈ 5.29 µM) |

Source: patent US6274715A, “Tricyclic erythromycin derivatives” (priority 1997, dated 2001)
